Source: patent publication US20060194230A1, “Genetic markers associated with benign prostatic hyperplasia” (BAYLOR COLLEGE OF MEDICINE, priority 2005, published 2006)

B1: IFNγ: interferon-γ used to stimulate prostate cell lines, 100 U/ml (protein, UniProt P01579 24-161, looked up)
Interferon gamma: QDPYVKEAENLKKYFNAGHSDVADNGTLFLGILKNWKEESDRKIMQSQIVSFYFKLFKNFKDDQSIQKSVETIKEDMNVKFFNSNKKKRDDFEKLTNYSVTDLNVQRKAIHELIQVMAELSPAAKTGKRKRSQMLFRG

What was measured:
[1] = test system: prostate transition zone tissue; assay: Microarray (Affymetrix U133 Plus 2.0) gene expression in prostates of patients treated with finasteride, tamsulosin or both before radical prostatectomy (Table 7); format: in vivo, human; details: patients treated 2, 4 or 6 weeks before prostatectomy; minus sign = down regulation
Procedure: In non-limiting exemplary embodiments of the invention, a randomized, open-label, single-center study was performed to determine the spatio-temporal changes in gene expression within the prostate of patients who receive 0.4 mg of Flomax® (tamsulosin) capsules daily, 5 mg of Proscar® (finasteride) tablets daily, or both for either 6, 4, or 2 weeks prior to radical prostatectomy. Tissue samples from radical prostatectomy specimens were obtained under an ongoing IRB-approved protocol (H-1158). Zone-specific tissue samples from patients undergoing radical prostatectomy for clinically localized prostate cancer were harvested and frozen in liquid nitrogen for later analysis. In addition to prostate cancer tissue samples, samples from the transition zone from these patients have also been harvested. Participants were randomly allocated to one of three drug treatment arms, after being categorized into one of three groups according to the duration from enrollment date to scheduled surgery date. BPH related symptoms were assessed using self-administered BPH symptom questionnaires at day of enrollment and every 2 weeks (no clinic visit required) until surgery. Medication compliance is assessed at the time of radical prostatectomy. FIG. 1 illustrates an exemplary randomized block design with variable block size for randomly assigning participants to nine treatment groups. After standard quality control analysis of extracted mRNA, 20 samples from patient prostates treated with either finasteride, tamsulosin, or both drugs together for 2, 4, or 6 weeks, were subjected to microarray chip hybridization (in conjunction with the Baylor College of Medicine Microarray Core Facility). In Table 6, patients were treated with the 5-alpha reductase inhibitor, Finasteride (FIN), or the alpha-1 adrenergic receptor antagonist, Tamsulosin (TAM), or both drugs together (FIN+TAM) for the times indicated prior to prostatectomy. Samples were used in Affymetrix U133 Plus 2.0 microarray analysis as shown. Through this analysis, a number of genes (listed in Table 7) were identified whose expression was modulated by drug treatment. These genes are associated with inflammatory pathways (an exemplary embodiment of which is provided in FIG. 2), Wnt signaling pathway (an exemplary embodiment of which is provided in FIG. 3); cell signaling and cell cycle regulatory pathway (an exemplary embodiment of which is provided in FIG. 4), or extracellular matrix remodeling. Although several of these genes have previously been implicated in prostate cancer progression, they have not been described in connection with progression of BPH or in connection with the exemplary drug treatment regimes described above. In Table 7, there are polynucleotides showing 1.3-77 fold changes in expression level after drug treatment. Down regulation after drug treatment is signified by “-” in front of the fold change. In particular embodiments, the information may be obtained at particular timepoints following the onset of therapy, such as about 1 day, 2 days, 3 days, 4 days, 5 days, 6 days, 1 week, 2 weeks, 3 weeks, 4 weeks, 5 weeks, 6 weeks, 7 weeks, 8 weeks, or combinations thereof, or more or less, for example. In the specific embodiments wherein more than one timepoint is evaluated, an average of the timepoints may be obtained.

[2] = test system: TZ BPH prostate tissue; assay: Microarray gene expression in TZ BPH nodular tissue of drug treated patients, dChip/ANOVA analysis (Table 11); format: in vivo, human; details: for expression of the five markers MIG (CXCL9), IP 10 (CXCL10), I-TAC (CXCL11), Contactin-1 (CNTN1), Dickkopf-3 (DKK3): TZ BPH tissue from treated patients versus untreated BPH tissue
Source text: In specific embodiments of the present invention, the inventors employed the exemplary Affymetrix U133 Plus 2.0 whole genome microarrays to profile gene expression in the transition zone (TZ) of small (≦30 g) and big (≧70 g) prostates. In addition, they also profiled gene expression changes in TZ benign prostatic hyperplasia (BPH) tissue from patients treated with α1-receptor blockade (tamsulosin), 5α-reductase type II inhibition (finasteride), or both medications combined. Integrating the results from these profiles led to the discovery of 5 exemplary polynucleotides that in specific embodiments are diagnostic and/or prognostic biomarkers for BPH. These exemplary markers include the three interferon inducible pro-inflammatory chemokines, MIG (CXCL9), IP 10 (CXCL10), and I-TAC (CXCL11), the adhesion molecule Contactin-1 (CNTN1), the Wnt pathway signaling inhibitor Dickkopf-3 (DKK3), and any combination thereof. […] In further specific embodiments, the mechanisms by which these inflammatory BPH markers are induced and their influence on prostate hyperplasia is determined.
To address the second specific embodiment, patients awaiting radical prostatectomy were given a standard therapeutic course of tamsulosin, finasteride or both tamsulosin and finasteride for 2, 4, or 6 weeks prior to surgery. TZ BPH nodular tissue was isolated post surgery. Total RNA was purified from 24 samples from individual patients and analyzed using Affymetrix U133 Plus 2.0 microarrays. Of the 24 arrays run on drug treated patient prostates, 7 were ultimately excluded from the final analysis due poor signal quality within the arrays.
Expression levels from drug treated prostate tissue were analyzed with dChip. Comparison of changes in gene expression between drugs and between time of therapy was performed by ANOVA. This initial analysis yielded 3568 genes with significant a difference (p≦0.01) in at least 1 comparison. […] Genes regulated by drug treatment were grouped by pathway or common function and those showing multiple changes in expression are shown in Table 11.

[3] = test system: hyperplastic prostatic tissue; details: cited from earlier work
[4] = test system: prostate RNA samples; assay: Real-time quantitative RT-PCR validation in prostate samples from drug treated patients; format: in vivo, human; details: BPH nodules, drug treatment versus no drug
Procedure: To further refine the list of genes profiled in the microarray studies, the differential expression of 30 of these genes were tested by real-time quantitative RT-PCR (Q-RT-PCR). Since Q-RT-PCR is based on the detection of small amplimers (80-150 base pairs) it. is less affected by RNA degradation than microarrays. This allowed the inventors to used a larger sample set of prostate RNA than were included in the microarray analyses. The inventors tested […] small and 10 big prostate samples (including the 15 samples from the array analysis) and 24 samples from drug treated patients (10 treated with finasteride, 7 treated with tamsulosin, and 7 treated with both drugs). Individual comparisons were made between small and big prostates and between no drug (all 18 small and big samples) and drug treatments for each therapy drug condition without consideration of the treatment duration. Several groups of genes validated with significant differences by Q-RT-PCR between small and big prostate and/or those regulated by at least one drug treatment. The three pro-inflammatory chemokines CXCL9 (MIG), CXCL10 (IP-10), and CXCL11 (I-TAC) are best known for production by monocytes as chemotactic agents for T cells (Kim and Broxmeyer, 1999). […]

[5] = test system: prostate cell lines; assay: Induction of potential BPH markers in prostate cell lines cultured with androgen or inflammatory agents; format: cell-based, human; details: non-cancer prostate cell lines cultured in the presence of the agent
Procedure: To confirm the expression of CXCL9, 10 and 11, contactin 1 and CXCR3 in prostate tissue, the present inventors examined several non-cancer prostate cell lines for these markers. The prostate epithelial cells RWPE-1 and PWR-1E are androgen responsive nomal or hyperplastic cells transformed with HPV1828, 29. The epithelial cell line BPH 130 is originated from BPH tissue transformed with SV40 T antigen. […] Cells were cultured in their prescribed media and were fixed, permeabilized and stained by standard methods and analyzed by single color flow cytometry. […] To determine if prostate cell expression of CXCL chemokines was responsive to interferon stimulation, stromal and epithelial cell lines were cultured in the presence of IFNγ. Chemokine induction was measured by Q-RT-PCR and is shown as fold induction over basal expression in untreated cells (FIG. 12).

[6] = test system: prostate cell lines; format: cell-based, human; details: 4 prostate cell lines, with or without 100 U/ml IFNγ, Q-RT-PCR
Procedure: 4 prostate cell lines were cultured in media with or without 100 U/ml IFNγ. Chemokine expression was determined by Q-RT-PCR and induction calculated using the 2^−ΔΔCt method compared to untreated cells.
To confirm the expression of CXCL9, 10 and 11, contactin 1 and CXCR3 in prostate tissue, the present inventors examined several non-cancer prostate cell lines for these markers. The prostate epithelial cells RWPE-1 and PWR-1E are androgen responsive nomal or hyperplastic cells transformed with HPV1828, 29. The epithelial cell line BPH 130 is originated from BPH tissue transformed with SV40 T antigen. The cell lines HTS-2T and HPS-19B are primary prostate stromal cell lines from TZ and PZ, respectively (Singh et al., 2004). Cells were cultured in their prescribed media and were fixed, permeabilized and stained by standard methods and analyzed by single color flow cytometry. The chemokines CXCL9, 10 and 11 were present in all cells tested as was contactin 1 (FIG. 11). DKK3 was not tested for lack of a suitable antibody for flow cytometric analysis. CXCR3 was highly expressed in all the cells. […] Chemokine induction was measured by Q-RT-PCR and is shown as fold induction over basal expression in untreated cells (FIG. 12). […]

[7] = treatment with drug between 2 and 6 weeks, TZ BPH tissue

| Molecule | CKTSF1B1 (Gremlin) expression fold change after drug treatment [1] [fold] | CXCL9 expression fold change after drug treatment [1] [fold] | CXCL10 expression fold change after drug treatment [1] [fold] | CXCL11 expression fold change after drug treatment [1] [fold] | CyclophilinC expression fold change after drug treatment [1] [fold] | Frizzled 10 expression fold change after drug treatment [1] [fold] | HLA-DP expression fold change after drug treatment [1] [fold] | HS3ST3B1 expression fold change after drug treatment [1] [fold] | ORM1 expression fold change after drug treatment [1] [fold] | VEGF expression fold change after drug treatment [1] [fold] | WIF1 expression fold change after drug treatment [1] [fold] | expression of the five markers MIG (CXCL9), IP 10 (CXCL10), I-TAC (CXCL11), Contactin-1 (CNTN1), Dickkopf-3 (DKK3) [2] | CKTSF1B1 (Gremlin) differential gene expression [2, 7] [fold] | CXCL9 differential gene expression [2, 7] [fold] | HLA-DP differential gene expression [2, 7] [fold] | HS3ST3B1 differential gene expression [2, 7] [fold] | ORM1 differential gene expression [2, 7] [fold] | VEGF differential gene expression [2, 7] [fold] | WIF1 differential gene expression [2, 7] [fold] | expression of chemokines CXCL9 (MIG), CXCL10 (IP-10), CXCL11 (I-TAC) [4] | further results |
| --- | --- | --- | --- | --- | --- | --- | --- | --- | --- | --- | --- | --- | --- | --- | --- | --- | --- | --- | --- | --- | --- |
| CC(C)(C)NC(=O)[C@H]1CC[C@H]2[C@@H]3CC[C@H]4NC(=O)C=C[C@]4(C)[C@H]3CC[C@]12C [Finasteride, finasteride] | −4.10 | −2.85 | −2.01 | −2.62 | −2.52 | −2.45 | −2.29 | −2.29 | 2.38 | −2.15 | −7.53 | decreased | −4.10 | −3.61 | −2.29 | −2.29 | 2.38 | −2.15 | −7.53 | decreased | DKK3 expression fold change after drug treatment [1]: −2.28 fold; KLK4 expression fold change after drug treatment [1]: −3.47 fold; SPROUTY2 expression fold change after drug treatment [1]: −1.94 fold; ZNF36 expression fold change after drug treatment [1]: −1.55 fold; CTNNB1 differential gene expression [2, 7]: 2.26 fold; Frizzled 10 differential gene expression [2, 7]: −2.45 fold; KLK4 differential gene expression [2, 7]: −3.47 fold; reduction of prostate growth ([3]; over the first year, without recurrance of significant prostatic growth): ≤ 20% |
| C[C@]1(O)CC[C@H]2[C@@H]3CCC4=CC(=O)CCC4=C3C=C[C@@]21C [R1881] | – | – | – | – | – | – | – | – | – | – | – | – | – | – | – | – | – | – | – | – | changes in BPH marker expression (CXCL9, 10, 11, contactin 1, CXCR3) [5]: No changes |
| CCOc1ccccc1OCCN[C@H](C)Cc1ccc(OC)c(S(N)(=O)=O)c1 [Tamsulosin, tamsulosin] | −4.76 | −3.37 | −4.65 | −5.81 | −1.87 | −1.82 | −2.33 | −2.20 | 76.96 | −2.01 | −4.60 | decreased | −4.76 | −2.86 | −2.33 | −2.20 | 76.96 | −2.01 | −4.60 | decreased | Cbl-b expression fold change after drug treatment [1]: 1.30 fold; Dicer 1 expression fold change after drug treatment [1]: 1.30 fold; DKK3 differential gene expression [2, 7]: −2.85 fold |
| COc1cc2nc(N3CCN(C(=O)C4COc5ccccc5O4)CC3)nc(N)c2cc1OC (stereo not shown) [doxazosin] | – | – | – | – | – | – | – | – | – | – | – | – | – | – | – | – | – | – | – | – | apoptosis in the stromal compartment of hyperplastic prostatic tissue ([3]; alpha blockade): increases; overall re-occurrence rate of BPH ([3]; alpha blockade): does not decrease |
| B1 | – | – | – | – | – | – | – | – | – | – | – | – | – | – | – | – | – | – | – | – | CXCL chemokine expression in prostate cells [6]: up-regulated |
